The results in this text go back to PubChem BioAssay (NCI).

Each structure is given as a SMILES string.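 Each compound was tested at five concentrations against cells in 96-well plates for 48 hours. TGI marks complete inhibition of growth.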 Where a SMILES comes first, the peptide text is derived from it. The star is where a group is joined. Boc = CC(C)(C)OC(=O)*; OBn = c1ccc(CO*)cc1

What all share (assay): inhibition of tumour cell growth, NCI panel, 48 h
The test system of experiment [1] is A549 NSCLC.
The test system of experiment [2] is CAKI-1 renal.
Experiment [3] has as its system EKVX NSCLC.
Experiment [4] has as its system HCC-2998 colon.
Experiment [5] deals with HCT-15 colon.
In experiment [6] the test system is KM12 colon.
The test system of experiment [7] is LOX IMVI melanoma.
The test system of experiment [8] is MOLT-4 leukemia.
Experiment [9] has as its system NCI-H23 lung.
The test system of experiment [10] is OVCAR-3 ovarian.
Experiment [11] relates to OVCAR-4 ovarian.
The subject of experiment [12] is OVCAR-8 ovarian.
For experiment [13], the system named is PC-3 prostate.
Experiment [14] deals with SF-295 CNS.
Experiment [15] deals with SF-539 CNS.
Experiment [16] deals with SK-OV-3 ovarian.
Experiment [17] deals with SNB-19 CNS.
Experiment [18] deals with T-47D breast.
Experiment [19] has as its system TK-10 renal.
Experiment [20] concerns UO-31 renal.

For `CC(C)C(NC(=O)CNC(=O)C1CCCN1C(=O)C(NC(=O)OC(C)(C)C)C(C)C)C(=O)NCC(=O)OCc1ccccc1` (stereo not given) (Boc-VPGVG-OBn; configuration not given here), the TGI in [1], in [2], in experiment [3], in [4], in experiment [5] and in experiment [6] was greater than 100 µM throughout. The TGI in [7], in experiment [8], in experiment [9], in experiment [10], in experiment [11] and in experiment [12] was greater than 100 µM in each case. The TGI in experiment [13], in [14], in experiment [15], in experiment [16], in experiment [17] and in [18] was greater than 100 µM each time. The TGI in experiment [19] and in [20] was greater than 100 µM throughout.
Take `COC(=O)c1c2c(cc3c1CC1(C3)Cc3ccc4c(c3C1=O)CCC4)CCC2` (stereo not given): the TGI was greater than 100 µM in experiment [1]; 21.2 µM in [2]; greater than 100 µM in experiment [3]; 40.1 µM in [4]; greater than 100 µM in experiment [5]; greater than 100 µM in experiment [6]. In addition, the TGI in experiment [7] was greater than 58.1 µM; in experiment [8] it was greater than 100 µM; in experiment [9], greater than 31.6 µM; in [10] it was greater than 31.5 µM; in [11] it was greater than 92 µM; in experiment [12] it was greater than 82 µM. Moreover, the TGI in [13] was greater than 24.4 µM; in experiment [14] it was greater than 28.8 µM; in experiment [15] it was 9.36 µM; in experiment [16], greater than 77.4 µM; in [17] it was 62.1 µM; in experiment [18], greater than 100 µM. Besides, the TGI in [19] was greater than 35.3 µM; in experiment [20], greater than 44.6 µM.
With `COc1cc2c(cc1OC)CN1CCc3ccccc3CC1C2` (stereo not given), the TGI in experiment [1], in [2], in [3], in experiment [4], in [5] and in experiment [6] was greater than 100 µM in each case. Also, the TGI was greater than 100 µM in experiment [7]; greater than 100 µM in [8]; greater than 100 µM in [9]; greater than 100 µM in [10]; 98.2 µM in [11]; greater than 100 µM in experiment [12]. Further, the TGI was greater than 100 µM in [13]; greater than 100 µM in experiment [14]; greater than 100 µM in [15]; greater than 100 µM in [16]; greater than 100 µM in [17]; 75.6 µM in experiment [18]. The results for the TGI in experiment [19] and in [20] were 64.3 µM and greater than 100 µM, respectively.
Consider `CC(=O)[C@]1(C)[C@H](C)O[C@](C)(CO)[C@H]1O[Si](C)(C)c1ccccc1`, for which the TGI was greater than 100 µM in [1]; 54.2 µM in experiment [2]; greater than 100 µM in experiment [3]; greater than 100 µM in experiment [4]; 84.6 µM in experiment [5]; greater than 100 µM in experiment [6]. The TGI in experiment [7] is 44.4 µM; in experiment [8], greater than 100 µM; in experiment [9], 81 µM; in experiment [10], greater than 100 µM; in experiment [11] it was greater than 100 µM; in experiment [12], greater than 100 µM. The TGI in experiment [13] was greater than 100 µM; in [14] it was greater than 100 µM; in experiment [15], greater than 100 µM; in experiment [16], greater than 100 µM; in [17], greater than 100 µM; in experiment [18], 97.9 µM. Further, the TGI in [19] was greater than 100 µM; in experiment [20] it was 46.6 µM.
`CC(=O)NC(CCCOC(C)=O)C(=O)NC(CCCOC(C)=O)C(=O)NC(CCCOC(C)=O)C(=O)NC(Cc1ccc([N+](=O)[O-])cc1)C(=O)NCC(=O)OCc1ccccc1` (stereo not given): the TGI in [1], in [2], in experiment [3], in experiment [4], in experiment [5] and in experiment [6] was greater than 100 µM each time. The TGI in [7], in experiment [8], in experiment [9], in [10], in experiment [11] and in experiment [12] was greater than 100 µM in each case. Besides, the TGI in [13], in [14], in experiment [15], in [16], in experiment [17] and in experiment [18] was greater than 100 µM throughout. The TGI in experiment [19] and in experiment [20] was greater than 100 µM in each case.
`CSc1n[nH]c2n[nH]c(C)c12`: the TGI in [1], in [2], in experiment [3], in experiment [4], in [5] and in experiment [6] was greater than 100 µM throughout. Further, the TGI in experiment [7], in experiment [8], in experiment [9], in experiment [10], in experiment [11] and in experiment [12] was greater than 100 µM in each case. For the same compound, the TGI in experiment [13], in experiment [14], in experiment [15], in experiment [16], in experiment [17] and in experiment [18] was greater than 100 µM throughout. Further, the TGI in experiment [19] and in [20] was greater than 100 µM throughout.
For `COc1cc(/C=C2/C(=O)N=C(NC(C)=O)N2C)ccc1OC(C)=O`, the TGI in [1], in experiment [2], in experiment [3], in [4], in [5] and in experiment [6] was greater than 100 µM throughout. The TGI in [7], in experiment [8], in [9], in [10], in experiment [11] and in experiment [12] was greater than 100 µM throughout. Further, the TGI in experiment [13], in [14], in experiment [15], in experiment [16], in experiment [17] and in experiment [18] was greater than 100 µM each time. Also, the TGI in experiment [19] and in [20] was greater than 100 µM each time.
